Test results taken from patent US20200316207A1, “POLYMERIC BILE ACID NANOPARTICLES AS ANTI-INFLAMMATORY AGENTS” (Yale University, priority 2015, published 2020).

Experiments:
[1] = test system: mouse pancreatic β cell line (MIN6); assay: Insulin production from pancreatic β cells (MIN6) by TGR5 activation; type: cell-based; conditions: 40 μg/mL, 25 mM glucose, compared with PLGA particles
Description: Concentration of insulin was measured using an Ultrasensitive Insulin ELISA kit (ALPCO). […] The pAkt production from CHO cells incubated with fresh or denatured insulin was compared to calculate percent bioactivity.
Concentration of insulin was measured using an Ultrasensitive Insulin ELISA kit (ALPCO).

rat microglia = conditions: cited from earlier work
[2] = test system: fibroblasts from patients with either sporadic or familial Alzheimer's disease; conditions: cited from earlier work
[3] = Loading of dye/agents in NPs; type: physicochemical
Description: Polymer Synthesis and Nanoparticle (NP) formulation. […] Chloroform was utilized as the mobile phase with a flow rate of 1 mL/min and both the columns and RI detector were maintained at 40° C. MW characteristics were determined relative to a calibration curve generated from narrow polydispersity polystyrene standards (Aldrich Chemical). […] Polymers or the mixture (100 mg) was dissolved in 2 mL chloroform containing DIR (1 mg), coumarin 6 (10 mg), RAPA (10 mg) or iron oxide (1 mg). Phosphate-buffered saline (PBS, 100 μL) or the PBS containing INS (10 μg) was added dropwise to the chloroform polymer solution while vortexing and homogenized using an IKA T25 Digital Ultra-Turrax (IKA). This dispersant phase was then added dropwise to a continuous phase of 5% PVA and homogenized. The mixture was then added dropwise to 200 mL of 0.2% PVA and left stirring for 2 h to evaporate the solvent. NPs were collected by centrifugation at 12,000 rpm for 20 min at 4° C. and then washed 3 times with deionized water. The particles were lyophilized and stored at −20° C. The hydrodynamic diameter and surface charge of NPs were measured by a Malvern Zetasizer. A dispersion of NPs was filtrated through a 0.45 μm Millipore filter into cuvettes prior to the measurements. […] The morphology of the NPs was observed by Hitachi S-4800 High Resolution scanning electron microscopy (SEM, Norcross). A dispersion of NPs in ethanol (2 μL) was placed on the wafer substrate and dried at room temperature. The sample was mounted on the aluminum sample holder and then gold sputtered. […] NPs were dispersed in the media (citrate buffer solution, pH 2.0) at 37° C. in the presence of pepsin (10 mg/mL). At each time point, NPs were centrifuged, and supernatant was collected to measure the amount of DIR released from the particles using a plate reader (λex 750 nm, λem 790 nm, SpectraMax M5, Molecular Devices). Insulin release was quantified by the BCA assay.

[4] = Biodistribution and clearance of dye-loaded NPs after oral gavage; type: in vivo, mice; conditions: pancreas
Description: B6, NOD, or Nude mice were fasted for 4 h and treated with DIR- or coumarin 6-encapsulating NPs by oral gavage (50, 100, or 500 mg/kg, 250 μL). Free DIR or coumarin 6 (solubilized with 1% Tween 20) served as controls. […] Fluorescence data was fit to the one component exponential decay model: Y=Yf+(Yo−e^−kt).
Biodistribution in animals was conducted using fluorescent dye loaded pBA NPs. Animals were first fasted for 4 h prior to the experiment then orally gavaged with the NP formulations in saline followed by resumption of normal food and water. At 4 h post gavage, animals were euthanized, and organs were harvested to be fluorescently imaged. Quantitative fluorescence was conducted with a multispectral imaging platform (Bruker multispectral MS FX PRO imaging system).

[5] = cited from earlier work

## CC(CCC(=O)O)C1CC[C@H]2[C@@H]3[C@@H](O)C[C@@H]4C[C@H](O)CC[C@]4(C)[C@H]3CC[C@]12C (stereo partly shown) [UDCA, urso-deoxycholic acid]
[1]
  insulin secretion from pancreatic β cells: able to induce insulin secretion
Rat microglia
  effect on IL-1β, nitric oxide, TNF-α: reduce IL-1β and nitric oxide, and downregulate TNF-α
[2]
  effect on mitochondrial function and Drp1: improve mitochondrial function and redistributes Drp1

## CCCCCCCCCCCCCCCCCCN1C(=CC=CC=CC=CC2=[N+](CCCCCCCCCCCCCCCCCC)c3ccccc3C2(C)C)C(C)(C)c2ccccc21.[I-] [DIR, 1,1′-dioctadecyl-3,3,3′,3′-tetramethylindotricarbocyanine iodide]
[3]
  Loading of agent: 6.7 μg per mg of particles
[4]
  ΔY (Final-Initial): 1.42 % Initial Dose/cm^3
[4]; one phase decay fit
  k (clearance rate): ~0.01 h⁻¹

## CCN(CC)c1ccc2cc(-c3nc4ccccc4s3)c(=O)oc2c1 [coumarin 6]
[3]
  Loading of agent: 84.3 μg per mg of particles
[5]
  Log P: 1.8

## insulin
[3]
  Loading of agent: 0.02 μg per mg of particles
  loading of INS in pUDCA NPs: approximately 20 ng/mg of NP
